In patent publication US20230024302A1, “2,3,5-TRISUBSTITUTED PYRAZOLO[1,5-A]PYRIMIDINE COMPOUNDS” (Arcus Biosciences, Inc., priority 2019, published 2023):
Like-named read-outs stand apart in the source and are kept apart here.

What was measured:
PI3Kγ = target: T1, PI3Kγ (Homo sapiens, UniProt P48736); assay: PI3Kγ cellular assay in THP-1 cells (AKT pS473 AlphaLISA); format: cell-based
T1 construct: host or cells: THP-1
Method in brief: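 Endogenous AKT S473 phosphorylation, detected by AlphaLISA in lysates, serves as the PI3Kγ activity read-out in stimulated, serum-starved THP-1 cells (1.8×10^5/well).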

PI3Kγ (p120γ) = target: T2, PI3Kγ (p120γ) (Homo sapiens, UniProt P48736); assay: Inhibition of PI3K kinase activity (ADP Glo), PI3Kγ; settings: read-out: biochemical potency (PI3Kγ IC50)
T2 construct: purchased Promega V1761
Method in brief: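 IC50 values come from a 4-parameter nonlinear fit of ADP-Glo luminescence, which measures ADP produced as PIP2 is phosphorylated to PIP3. The p120γ enzyme (2× stock 8 nM) sat with compound 1 h at rt before substrate (2× stocks: 50 μM ATP, 0.1 mg/ml PIP2) was added. Phosphorylation then proceeded 60 min at rt.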

[1] = Table 2, rhMCP-1 stimulated AKT pS473, read-out: cellular potency (PI3Kγ IC50)
[2] = Table 1, rhMCP-1 stimulated AKT pS473, read-out: cellular potency (PI3Kγ IC50)
[3] = Table 3, rhMCP-1 stimulated AKT pS473, read-out: cellular potency (PI3Kγ IC50)
[4] = AKT pS473, read-out: cellular potency (PI3Kγ IC50)
[5] = Table 6, rhMCP-1 stimulated AKT pS473, read-out: cellular potency (PI3Kγ IC50)

T2 sequence (P48736 whole entry): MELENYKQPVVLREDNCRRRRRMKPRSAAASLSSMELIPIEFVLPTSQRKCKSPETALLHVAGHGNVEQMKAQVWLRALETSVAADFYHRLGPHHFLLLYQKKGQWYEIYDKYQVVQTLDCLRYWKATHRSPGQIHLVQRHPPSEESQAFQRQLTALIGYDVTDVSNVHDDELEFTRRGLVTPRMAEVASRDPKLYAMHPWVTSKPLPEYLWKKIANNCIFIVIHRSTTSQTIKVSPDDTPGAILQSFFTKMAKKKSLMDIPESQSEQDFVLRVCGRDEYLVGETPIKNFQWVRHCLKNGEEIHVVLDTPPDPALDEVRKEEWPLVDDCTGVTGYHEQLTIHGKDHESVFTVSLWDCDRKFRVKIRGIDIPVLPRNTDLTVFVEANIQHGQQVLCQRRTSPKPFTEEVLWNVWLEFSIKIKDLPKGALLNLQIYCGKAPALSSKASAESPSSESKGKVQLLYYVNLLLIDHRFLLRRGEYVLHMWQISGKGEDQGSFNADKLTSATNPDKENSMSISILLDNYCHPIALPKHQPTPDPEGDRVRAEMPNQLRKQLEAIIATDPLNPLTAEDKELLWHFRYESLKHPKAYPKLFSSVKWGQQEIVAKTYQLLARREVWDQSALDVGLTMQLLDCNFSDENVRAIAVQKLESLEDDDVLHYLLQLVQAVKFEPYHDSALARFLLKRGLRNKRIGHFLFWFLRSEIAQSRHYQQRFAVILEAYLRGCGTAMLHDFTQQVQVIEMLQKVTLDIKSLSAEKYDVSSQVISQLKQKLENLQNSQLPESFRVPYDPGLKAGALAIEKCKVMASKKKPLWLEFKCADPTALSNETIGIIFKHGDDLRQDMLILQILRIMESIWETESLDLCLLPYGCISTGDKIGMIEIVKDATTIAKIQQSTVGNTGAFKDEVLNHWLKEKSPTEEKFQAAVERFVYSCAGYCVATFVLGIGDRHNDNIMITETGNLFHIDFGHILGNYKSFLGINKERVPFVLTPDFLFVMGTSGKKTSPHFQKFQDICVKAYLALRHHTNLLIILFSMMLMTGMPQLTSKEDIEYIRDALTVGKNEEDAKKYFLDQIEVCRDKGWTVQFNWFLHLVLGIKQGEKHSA
T1 sequence (P48736 whole entry): as above

## Cc1cc(-c2ccn3nc(N)c(C(=O)NCc4ccncc4)c3n2)cc2c1C(=O)N([C@@H](C)C1CC1)C2 [Example 201]
PI3Kγ; [1]
  IC50: 100 to 1000 nM
PI3Kγ (p120γ); Table 2, p120γ
  IC50: < 100 nM

## C[C@@H](C1CC1)N1Cc2cc(-c3ccn4nc(N)c(C(=O)N[C@@H](CO)C5CC5)c4n3)cc(OC(F)F)c2C1=O [Example 159, 2-Amino-N-[(1R)-1-cyclopropyl-2-hydroxyethyl]-5-{2-[(1S)-1-cyclopropylethyl]-7-(difluoromethoxy)-1-oxo-2,3-dihydro-1H-isoindol-5-yl}pyrazolo[1,5-a]pyrimidine-3-carboxamide]
PI3Kγ; [2]
  IC50: < 100 nM
PI3Kγ (p120γ); Table 1, p120γ
  IC50: < 100 nM

## C[C@@H](C1CC1)N1Cc2cc(-c3ccn4nc(N)c(C(=O)NC5(C)COC5)c4n3)cc(C(F)(F)F)c2C1=O [Example 56, 2-[(S)-1-Cyclopropylethyl]-5-{2-amino-3-[(3-methyl-3-oxetanylamino)carbonyl]-1,4,7a-triaza-5-indenyl}-7-(trifluoromethyl)-1-isoindolinone]
PI3Kγ; [2]
  IC50: < 100 nM
PI3Kγ (p120γ); Table 1, p120γ
  IC50: < 100 nM

## CC(=O)N1CC(NC(=O)c2c(N)nn3ccc(-c4cc5c(c(C(F)(F)F)c4)C(=O)N([C@@H](C)C4CC4)C5)nc23)C1 [Example 334]
PI3Kγ; [3]
  IC50: 100 to 1000 nM
PI3Kγ (p120γ); Table 3, p120γ
  IC50: < 100 nM

## C[C@@H](C1CC1)N1Cc2cc(-c3ccn4nc(N)c(C(=O)NC5CCS(=O)(=O)CC5)c4n3)cc(C(F)(F)F)c2C1=O [Example 347]
PI3Kγ; [3]
  IC50: 100 to 1000 nM
PI3Kγ (p120γ); Table 3, p120γ
  IC50: < 100 nM

## CC(C)[C@H](N1Cc2cc(-c3ccn4nc(N)c(C(=O)NC5CC5)c4n3)cc(NS(C)(=O)=O)c2C1=O)C(F)(F)F [Example 402]
PI3Kγ; [4]
  IC50: 100 to 1000 nM
PI3Kγ (p120γ)
  IC50: < 100 nM

## C[C@@H](C1CC1)N1Cc2cc(-c3ccn4nc(N)c(C(=O)N[C@H]5CNC[C@@H]5O)c4n3)cc(C(F)(F)F)c2C1=O [Example 359]
PI3Kγ; [3]
  IC50: > 1000 nM
PI3Kγ (p120γ); Table 3, p120γ
  IC50: < 100 nM

## Cc1cc(-c2ccn3nc(N)c(C(=O)N[C@@H](C)c4nccs4)c3n2)cc2c1C(=O)N([C@@H](C)C1CC1)C2 [Example 178]
PI3Kγ; [1]
  IC50: 100 to 1000 nM
PI3Kγ (p120γ); Table 2, p120γ
  IC50: < 100 nM

## Cc1cc(-c2ccn3nc(N)c(C(=O)N[C@@H](CO)C4CC4)c3n2)cc2c1C(=O)N(CC(C)(C)O)C2 [Example 321]
PI3Kγ; [1]
  IC50: 100 to 1000 nM
PI3Kγ (p120γ); Table 2, p120γ
  IC50: < 100 nM

## Cc1cc(-c2ccn3nc(N)c(C(=O)NC4CC4)c3n2)cc2c1C(=O)N(C1CC1)C2 [Example 303]
PI3Kγ; [1]
  IC50: 100 to 1000 nM
PI3Kγ (p120γ); Table 2, p120γ
  IC50: < 100 nM

## C[C@@H](C1CC1)N1Cc2cc(-c3ccn4nc(N)c(C(=O)N[C@]5(C)C[C@@H](O)C5)c4n3)cc(NS(C)(=O)=O)c2C1=O [Example 83, 2-Amino-5-{2-[(1S)-1-cyclopropylethyl]-7-methanesulfonamido-1-oxo-2,3-dihydro-1H-isoindol-5-yl}-N-[trans-3-hydroxy-1-methylcyclobutyl]pyrazolo[1,5-a]pyrimidine-3-carboxamide]
PI3Kγ; [2]
  IC50: < 100 nM
PI3Kγ (p120γ); Table 1, p120γ
  IC50: < 100 nM

## C[C@@H](C1CC1)N1Cc2cc(-c3ccn4nc(N)c(C(=O)NCCC(C)(C)O)c4n3)cc(NS(C)(=O)=O)c2C1=O [Example 95, 2-Amino-5-{2-[(1S)-1-cyclopropylethyl]-7-methanesulfonamido-1-oxo-2,3-dihydro-1H-isoindol-5-yl}-N-(3-hydroxy-3-methylbutyl)pyrazolo[1,5-a]pyrimidine-3-carboxamide]
PI3Kγ; [2]
  IC50: < 100 nM
PI3Kγ (p120γ); Table 1, p120γ
  IC50: < 100 nM

## C[C@@H](C1CC1)N1Cc2cc(-c3ccn4nc(N)c(C(=O)NC5CC5)c4n3)cc(NS(C)(=O)=O)c2C1=O [Example 87, 2-Amino-N-cyclopropyl-5-{2-[(1S)-1-cyclopropylethyl]-7-methanesulfonamido-1-oxo-2,3-dihydro-1H-isoindol-5-yl}pyrazolo[1,5-a]pyrimidine-3-carboxamide]
PI3Kγ; [2]
  IC50: < 100 nM
PI3Kγ (p120γ); Table 1, p120γ
  IC50: < 100 nM

## Cc1cc(-c2ccn3nc(N)c(C(=O)Nc4cnn(C5CC5)c4)c3n2)cc2c1C(=O)N([C@@H](C)C1CC1)C2 [Example 294]
PI3Kγ; [1]
  IC50: 100 to 1000 nM
PI3Kγ (p120γ); Table 2, p120γ
  IC50: < 100 nM

## C[C@@H](C1CC1)N1Cc2cc(-c3ccn4nc(N)c(C(=O)N[C@@H](CO)C5CC5)c4n3)cc(NS(C)(=O)=O)c2C1=O [Example 97, 2-Amino-N-((R)-1-cyclopropyl-2-hydroxyethyl)-5-(2-((S)-1-cyclopropylethyl)-7-(methylsulfonamido)-1-oxoisoindolin-5-yl)pyrazolo[1,5-a]pyrimidine-3-carboxamide]
PI3Kγ; [2]
  IC50: < 100 nM
PI3Kγ (p120γ); Table 1, p120γ
  IC50: < 100 nM

## Cc1cc(-c2ccn3nc(N)c(C(=O)NC4CCNCC4)c3n2)cc2c1C(=O)N([C@@H](C)C1CC1)C2 [Example 179]
PI3Kγ; [1]
  IC50: 100 to 1000 nM
PI3Kγ (p120γ); Table 2, p120γ
  IC50: < 100 nM

## C[C@@H](C1CC1)N1Cc2cc(-c3ccn4nc(N)c(C(=O)Nc5ccc(=O)[nH]c5)c4n3)cc(NS(C)(=O)=O)c2C1=O [Example 371]
PI3Kγ; [4]
  IC50: 100 to 1000 nM
PI3Kγ (p120γ)
  IC50: < 100 nM

## Cc1cc(-c2ccn3nc(N)c(C(=O)NC[C@H]4C[C@@H](O)C4)c3n2)cc2c1C(=O)N([C@@H](C)C1CC1)C2 [Example 215]
PI3Kγ; [1]
  IC50: 100 to 1000 nM
PI3Kγ (p120γ); Table 2, p120γ
  IC50: < 100 nM

## C[C@@H](C1CC1)N1Cc2cc(-c3ccn4nc(N)c(C(=O)Nc5cccc(C#N)c5)c4n3)cc(NS(C)(=O)=O)c2C1=O [Example 386]
PI3Kγ; [4]
  IC50: 100 to 1000 nM
PI3Kγ (p120γ)
  IC50: < 100 nM

## CCNC(=O)c1c(N)nn2ccc(-c3cc4c(c(C(F)(F)F)c3)C(=O)N([C@@H](C)C3CC3)C4)nc12 [Example 68, 2-[(S)-1-Cyclopropylethyl]-5-[2-amino-3-(ethylamino)carbonyl-1,4,7a-triaza-5-indenyl]-7-(trifluoromethyl)-1-isoindolinone]
PI3Kγ; [2]
  IC50: < 100 nM
PI3Kγ (p120γ); Table 1, p120γ
  IC50: < 100 nM

## C[C@H](N1Cc2cc(-c3ccn4nc(N)c(C(=O)NC5(C#N)COC5)c4n3)cc(NS(C)(=O)=O)c2C1=O)C(F)(F)F [Example 117, (S)-2-Amino-N-(3-cyanooxetan-3-yl)-5-(7-(methylsulfonamido)-1-oxo-2-(1,1,1-trifluoropropan-2-yl)isoindolin-5-yl)pyrazolo[1,5-a]pyrimidine-3-carboxamide]
PI3Kγ; [2]
  IC50: < 100 nM
PI3Kγ (p120γ); Table 1, p120γ
  IC50: < 100 nM

## C[C@@H](C1CC1)N1Cc2cc(-c3ccn4nc(N)c(C(=O)N[C@H]5CCCNC5)c4n3)cc(C(F)(F)F)c2C1=O [Example 356]
PI3Kγ; [3]
  IC50: 100 to 1000 nM
PI3Kγ (p120γ); Table 3, p120γ
  IC50: < 100 nM

## Cc1cc(-c2ccn3nc(N)c(C(=O)NCC4(C#N)CC4)c3n2)cc2c1C(=O)N([C@@H](C)C1CC1)C2 [Example 256]
PI3Kγ; [1]
  IC50: 100 to 1000 nM
PI3Kγ (p120γ); Table 2, p120γ
  IC50: < 100 nM

## C[C@@H](C1CC1)N1Cc2cc(-c3ccn4nc(N)c(C(=O)Nc5ccncc5)c4n3)cc(NS(C)(=O)=O)c2C1=O [Example 100, (S)-2-Amino-5-(2-(1-cyclopropylethyl)-7-(methylsulfonamido)-1-oxoisoindolin-5-yl)-N-(pyridin-4-yl)pyrazolo[1,5-a]pyrimidine-3-carboxamide]
PI3Kγ; [2]
  IC50: < 100 nM
PI3Kγ (p120γ); Table 1, p120γ
  IC50: < 100 nM

## C[C@@H](C1CC1)N1Cc2cc(-c3ccn4nc(N)c(C(=O)Nc5ccc(C#N)cc5)c4n3)cc(NS(C)(=O)=O)c2C1=O [Example 393]
PI3Kγ; [4]
  IC50: 100 to 1000 nM
PI3Kγ (p120γ)
  IC50: < 100 nM

## Cc1ncccc1NC(=O)c1c(N)nn2ccc(-c3cc4c(c(OC(F)(F)F)c3)C(=O)N([C@@H](C)C3CC3)C4)nc12 [Example 44, 2-[(S)-1-Cyclopropylethyl]-5-{2-amino-3-[(2-methyl-3-pyridylamino)carbonyl]-1,4,7a-triaza-5-indenyl}-7-trifluoromethoxy-1-isoindolinone]
PI3Kγ; [2]
  IC50: < 100 nM
PI3Kγ (p120γ); Table 1, p120γ
  IC50: < 100 nM

## Cc1cc(-c2ccn3nc(N)c(C(=O)NC4CCOCC4)c3n2)cc2c1C(=O)N([C@@H](C)C1CC1)C2 [Example 181]
PI3Kγ; [1]
  IC50: 100 to 1000 nM
PI3Kγ (p120γ); Table 2, p120γ
  IC50: < 100 nM

## Cc1cc(-c2ccn3nc(N)c(C(=O)NC[C@H]4C[C@H](O)C4)c3n2)cc2c1C(=O)N([C@@H](C)C1CC1)C2 [Example 4]
PI3Kγ; [2]
  IC50: < 100 nM
PI3Kγ (p120γ); Table 1, p120γ
  IC50: < 100 nM

## Cc1cc(-c2ccn3nc(N)c(C(=O)N[C@@H](CO)C(C)C)c3n2)cc2c1C(=O)N([C@@H](C)C1CC1)C2 [Example 191]
PI3Kγ; [1]
  IC50: 100 to 1000 nM
PI3Kγ (p120γ); Table 2, p120γ
  IC50: < 100 nM

## C[C@@H](C1CC1)N1Cc2cc(-c3ccn4nc(N)c(C(=O)N[C@H]5CCNC5=O)c4n3)cc(OC(F)(F)F)c2C1=O [Example 32, 2-Amino-5-{2-[(1S)-1-cyclopropylethyl]-1-oxo-7-(trifluoromethoxy)-2,3-dihydro-1H-isoindol-5-yl}-N-[(3S)-2-oxopyrrolidin-3-yl]pyrazolo[1,5-a]pyrimidine-3-carboxamide]
PI3Kγ; [2]
  IC50: < 100 nM
PI3Kγ (p120γ); Table 1, p120γ
  IC50: < 100 nM

## C[C@@H](C1CC1)N1Cc2cc(-c3ccn4nc(N)c(C(=O)NC5CC5)c4n3)cc(S(C)(=N)=O)c2C1=O (some centres unmarked) [Example 447]
PI3Kγ; [5]
  IC50: 100 to 1000 nM
PI3Kγ (p120γ); Table 6, p120γ
  IC50: < 100 nM

## Cc1cc(-c2ccn3nc(N)c(C(=O)NCC(=O)Nc4ccccc4)c3n2)cc2c1C(=O)N([C@@H](C)C1CC1)C2 [Example 279]
PI3Kγ; [1]
  IC50: > 1000 nM
PI3Kγ (p120γ); Table 2, p120γ
  IC50: < 100 nM

## C[C@@H](C1CC1)N1Cc2cc(-c3ccn4nc(N)c(C(=O)N[C@H]5CNC(=O)C5)c4n3)cc(OC(F)(F)F)c2C1=O [Example 28, 2-Amino-5-{2-[(1S)-1-cyclopropylethyl]-1-oxo-7-(trifluoromethoxy)-2,3-dihydro-1H-isoindol-5-yl}-N-[(3R)-5-oxopyrrolidin-3-yl]pyrazolo[1,5-a]pyrimidine-3-carboxamide]
PI3Kγ; [2]
  IC50: < 100 nM
PI3Kγ (p120γ); Table 1, p120γ
  IC50: < 100 nM

## COc1ccc(NC(=O)c2c(N)nn3ccc(-c4cc5c(c(OC(F)(F)F)c4)C(=O)N([C@@H](C)C4CC4)C5)nc23)cn1 [Example 423]
PI3Kγ; [5]
  IC50: 100 to 1000 nM
PI3Kγ (p120γ); Table 6, p120γ
  IC50: < 100 nM
